Consider 21 compounds from PubChem BioAssay (NCI).

Holding throughout (assay): inhibition of tumour cell growth, NCI panel, 48 h
In experiment [1] the test system is CCRF-CEM leukemia.
Experiment [2] relates to DU-145 prostate.
Experiment [3] deals with LOX IMVI melanoma.
For experiment [4], the system named is NCI-H460 lung.
Experiment [5] deals with SF-268 CNS.
For experiment [6], the system named is SF-295 CNS.
The subject of experiment [7] is SK-MEL-28 melanoma.
The subject of experiment [8] is SK-OV-3 ovarian.
The subject of experiment [9] is TK-10 renal.
For experiment [10], the system named is RXF 393 renal.

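Where inhibition never reached the appropriate level, the endpoint shown equals the highest concentration tested. Otherwise, values were interpolated linearly from a five-concentration, 48-hour dose response in 96-well plates. At the GI50, growth is halved. The concentration for full growth arrest is given as TGI.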

Take `COc1ccc(/C=C\c2cc(OC)c(OC)c(OC)c2)c(NS(=O)(=O)c2ccc(C)cc2)c1O`: the GI50 in experiment [1] is 0.0407 µM; in [2], 0.0399 µM; in experiment [3], 0.0509 µM; in [4] it was 0.0351 µM; in experiment [5], 0.226 µM; in experiment [6], 0.0509 µM. Besides, the values for the GI50 in experiment [7], in experiment [8] and in experiment [9] were 0.602 µM, 0.685 µM and 3.8 µM, respectively. Moreover, the TGI is > 100 µM in experiment [1]; > 100 µM in experiment [3]; > 37.9 µM in experiment [4]; > 91.5 µM in experiment [5]; > 96.2 µM in [7]; > 100 µM in [8]. Moreover, in [9], the TGI was > 100 µM.
For the compound `CC[C@H](C)[C@H](NC(=O)C12C3C4C1C1C2C3C41NC(C)=O)C(=O)N(C)[C@H](C[C@@H](OC(C)=O)c1nc(C(=O)N[C@@H](Cc2ccccc2)C[C@H](C)C(=O)OC)cs1)C(C)C` (some centres undefined), the GI50 in experiment [1] is 0.361 µM; in experiment [2] it was 0.469 µM; in [3], 0.231 µM; in experiment [4] it was 0.402 µM; in experiment [5], 0.677 µM; in experiment [6], 0.494 µM. Further, the GI50 was > 3.7 µM in [7], 0.703 µM in [8] and 1.11 µM in experiment [9]. In addition, the TGI is > 14.3 µM in [1]; > 9.88 µM in experiment [2]; > 14.3 µM in experiment [3]; > 14.3 µM in [4]; > 14.3 µM in experiment [5]; > 14.3 µM in experiment [6]. Moreover, the TGI in [7], in [8] and in [9] was > 14.3 µM in each case.
In the case of `COc1cc(C2C(C#N)=C(N)OC3=C2C(=O)c2ccccc2C3=O)cc(OC)c1OC` (centres undefined), the GI50 in [2] was 0.474 µM; in experiment [3], 0.629 µM; in [4], 0.532 µM; in experiment [10], 0.517 µM; in [5], 6.58 µM; in experiment [6], 8.29 µM. For the same compound, the figures for the GI50 in experiment [7], in [8] and in [9] were 6.72 µM, 4.88 µM and 10 µM, respectively. For the same compound, the TGI was found to be 15.9 µM in [2]; 14 µM in experiment [3]; 14.5 µM in experiment [4]; 16.3 µM in experiment [10]; 60.7 µM in experiment [5]; 24.8 µM in experiment [6]. Moreover, the TGI is 22.9 µM in experiment [7], > 100 µM in experiment [8] and > 100 µM in [9].
In the case of `COc1ccc(C(Nc2ncccn2)c2cc3c(cc2O)OCO3)cc1` (centres undefined), the TGI is 44.4 µM in [2]; 32.2 µM in experiment [3]; 47.2 µM in experiment [4]; 36.3 µM in [10]; 38.4 µM in experiment [5]; > 100 µM in [6]. Further, the TGI in experiment [7] stood at 52.4 µM; in experiment [8], 51.2 µM; in experiment [9] it was 37.6 µM.
For the compound `CC(=O)OC1CCC2(C)C(=CC(C3C=C4CC(OC(C)=O)CCC4(C)C4=C3C3CC5OC6(CCC(C)CO6)C(C)C5C3(C)CC4)C3=C2CCC2(C)C3CC3OC4(CCC(C)CO4)C(C)C32)C1` (centres undefined), the TGI in experiment [2] is 27.2 µM; in experiment [3] it was 30.1 µM; in experiment [10], 31.5 µM; in experiment [5], 23.5 µM; in experiment [6] it was 26.5 µM; in experiment [7], 31.5 µM. Also, the TGI in experiment [8] stood at 32.7 µM; in experiment [9], 27.6 µM.
`CCCCCCCCCC(=O)CC(=O)c1c(O)cccc1O`: the TGI in experiment [1] is 61 µM; in experiment [3] it was 49.6 µM; in experiment [4], > 100 µM; in [10], 72.1 µM; in [5] it was > 100 µM; in experiment [6], 98.2 µM. Besides, the TGI in [7] is > 100 µM; in [8] it was 64.1 µM; in [9], > 100 µM.
With `O=C(NNS(=O)(=O)c1cc(C(F)(F)F)cc(C(F)(F)F)c1)c1cnn(-c2ccc(Cl)cc2)c1C(F)(F)F`, the GI50 in experiment [2] is 18.6 µM; in [3], 17 µM; in [4], 17.2 µM; in [5], 21.6 µM; in [6] it was 14.9 µM; in experiment [7], 20.3 µM. Also, the GI50 in experiment [8] was 22.9 µM; in experiment [9], 24.3 µM. The TGI in experiment [2] stood at 44.1 µM; in experiment [3], 36.5 µM; in [4], 37.2 µM; in experiment [5], 52.6 µM; in experiment [6], 44 µM; in [7], 51.7 µM. The TGI in experiment [8] worked out at 61.7 µM; in [9], 54.7 µM.
For the compound `COC(=O)C1=C(C(=O)OC)C2(C(=O)OC)OC1(OC)C(C1(C(=O)OC)C(C(=O)OC)=C1C(=O)OC)=C2C(=O)OC` (centres undefined), the TGI in experiment [1], in experiment [3], in experiment [4], in [10], in experiment [5] and in experiment [6] was > 100 µM throughout. Besides, the TGI in experiment [7], in experiment [8] and in experiment [9] was > 100 µM throughout.
`CC(=O)/C(C)=N/N/C(N)=N\S(=O)(=O)c1cc(C(=O)Nc2ccccc2)c(Cl)cc1SCc1ccccc1`: the GI50 in [1] was 98.5 µM; in experiment [2], 3.5 µM; in [3] it was 4.83 µM; in experiment [4], 18 µM; in experiment [5], 40.4 µM; in experiment [6], 43.1 µM. The GI50 is > 100 µM in experiment [7], > 100 µM in [8] and 62.4 µM in [9]. Moreover, the TGI in [1] was > 100 µM; in [2], > 100 µM; in [3] it was > 100 µM; in experiment [4], 79.3 µM; in experiment [5] it was > 100 µM; in experiment [6], > 100 µM. In addition, the TGI in [7], in experiment [8] and in experiment [9] was > 100 µM throughout.
For the compound `COc1ccc(C(O)c2cc3c(N)c(C(=O)Nc4cccc(Br)c4)sc3nc2C)cc1` (centres undefined), the GI50 in experiment [1] is 0.121 µM; in experiment [2], 0.128 µM; in [3] it was 0.154 µM; in experiment [4] it was 0.109 µM; in experiment [5], 0.29 µM; in [6], 0.11 µM. Also, the values for the GI50 in experiment [7], in experiment [8] and in [9] were 22.3 µM, 0.197 µM and 9.26 µM, respectively. The TGI is > 100 µM in [1]; 11.9 µM in [2]; > 32.4 µM in [3]; 3.61 µM in experiment [4]; > 32.6 µM in [5]; > 31.7 µM in experiment [6]. The results for the TGI in [7], in experiment [8] and in experiment [9] were > 100 µM, > 65.1 µM and > 95.1 µM, respectively.
Consider `O=c1[nH]c(=S)[nH]c(O)c1/C=C1\C=CC=N1`, for which the TGI amounted to 75.5 µM in experiment [1]; 46.2 µM in [3]; 65.5 µM in [4]; 9.6 µM in experiment [10]; 55.1 µM in experiment [5]; 82.4 µM in experiment [6]. For the same compound, the TGI is 48.5 µM in experiment [7], > 100 µM in experiment [8] and 37.7 µM in experiment [9].
For the compound `COc1ccc(/C=C2\COc3ccc(-c4ccccc4)cc3C2=O)cc1O`, the GI50 was 2.03 µM in [1]; 2.49 µM in experiment [2]; 1.85 µM in experiment [3]; 2.07 µM in experiment [4]; 3.18 µM in experiment [5]; 4.4 µM in experiment [6]. The GI50 was 1.88 µM in experiment [7], 4.16 µM in [8] and 2.14 µM in [9]. In addition, the TGI was > 100 µM in experiment [1]; 9.69 µM in experiment [2]; 3.87 µM in experiment [3]; 5.8 µM in [4]; 12.7 µM in experiment [5]; 21.7 µM in [6]. Also, the TGI was 3.96 µM in [7], 22.3 µM in [8] and 8.3 µM in experiment [9].
For `CCC1(OC(C)=O)C(=O)OCc2c1cc1n(c2=O)Cc2cc3ccccc3nc2-1` (centres undefined), the TGI in [1] was 1.93 µM; in experiment [3], 13.5 µM; in experiment [4] it was 7.15 µM; in [10] it was > 22.6 µM; in [5], > 100 µM; in experiment [6], > 100 µM. For the same compound, the TGI in experiment [7] was > 100 µM; in experiment [8], > 69.6 µM; in experiment [9], > 100 µM.
For the compound `COC1=C(OC)CCC(/C(C#N)=C/c2ccc(OC)c(OC)c2)=C1`, the TGI in [1] is > 100 µM; in [3] it was > 100 µM; in experiment [4], > 100 µM; in experiment [10], 92.9 µM; in experiment [5] it was > 100 µM; in experiment [6], > 100 µM. The values for the TGI in experiment [7], in experiment [8] and in experiment [9] were > 100 µM, 91.3 µM and 98 µM, respectively.
As to `Cc1ccc(Nc2ccc(Nc3ccc(C)cc3)c3c2C(=O)c2c(O)ccc(O)c2C3=O)cc1`, the TGI in experiment [1], in experiment [3], in [4], in [10], in experiment [5] and in experiment [6] was > 100 µM in each case. Also, the TGI in [7], in experiment [8] and in experiment [9] was > 100 µM in each case.
For `CCNCC(O)c1ccc(N)c([N+](=O)[O-])c1` (centres undefined), the TGI in experiment [1], in [2], in [3], in [4], in [5] and in [6] was > 100 µM in each case. Moreover, the TGI in experiment [7], in experiment [8] and in experiment [9] was > 100 µM in each case.
`O=C(/C=C/c1cccc(Cl)c1)c1ccc(Cl)cc1Cl`: the GI50 is 9.59 µM in [2]; 1.88 µM in experiment [3]; 13.2 µM in [4]; 10.2 µM in experiment [5]; 10.1 µM in experiment [6]; 9.69 µM in experiment [7]. Further, the GI50 is 9.91 µM in [8] and 8.8 µM in experiment [9]. Besides, the TGI in experiment [2] is 23 µM; in experiment [3] it was 4.69 µM; in experiment [4], > 50 µM; in experiment [5], 25.1 µM; in experiment [6], 22.4 µM; in experiment [7] it was 26.6 µM. Also, the TGI amounted to 21.7 µM in experiment [8] and 18.8 µM in [9].
For the compound `Fc1ccccc1C1CC(C(c2ccccc2)c2ccccc2)=Nc2ccccc2S1` (centres undefined), the TGI in experiment [1] was found to be 5.57 µM; in experiment [3], 19.7 µM; in experiment [4], 23.2 µM; in experiment [10], 17.2 µM; in [5], 26.1 µM; in experiment [6], 26.5 µM. Also, the TGI in experiment [7] came out at 25.1 µM; in [8], 68.6 µM; in experiment [9] it was 25.2 µM.
Take `Cc1cc(C)nc(NS(=O)(=O)c2ccc(NC(=O)c3cccc4cc5ccccc5nc34)cc2)n1`: the TGI was 77.5 µM in experiment [1]; 56.1 µM in experiment [3]; > 100 µM in [4]; > 100 µM in experiment [10]; > 100 µM in experiment [5]; > 100 µM in experiment [6]. Also, the TGI in experiment [7], in [8] and in [9] was > 100 µM in each case.
Regarding `COc1cccc(C2C(C(=O)Nc3cc(=O)n(C)c(=O)n3C)=C(C)NC(C)=C2C(=O)Nc2cc(=O)n(C)c(=O)n2C)c1O`, the TGI in experiment [1], in [3], in experiment [4], in [10], in experiment [5] and in experiment [6] was > 100 µM throughout. The TGI in [7], in experiment [8] and in experiment [9] was > 100 µM each time.
On to `O=c1c([Se]c2coc3ccccc3c2=O)coc2ccccc12`, for which the TGI was > 100 µM in experiment [1]; 29.5 µM in [3]; 14 µM in [4]; 29.5 µM in experiment [10]; 33.8 µM in [5]; 13.7 µM in [6]. Besides, the results for the TGI in [7], in experiment [8] and in experiment [9] were 30.8 µM, 29.8 µM and 31.6 µM, respectively.
